Laboratory results from the supplement of paper PMC10307832.

Legend:
Assay in all cases: relative viability (nuclei count vs DMSO), 5 days (fraction); higher = more cells survive
[1] = compound: CCn1c(-c2nonc2N)nc2c(C#CC(C)(C)O)ncc(OC[C@H]3CCCNC3)c21 + Nc1nc2[nH]cc(CCc3ccc(C(=O)N[C@@H](CCC(=O)O)C(=O)O)cc3)c2c(=O)[nH]1 [Pemetrexed] (partner 0.2 µM)
Method in brief: (§1)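 Relative viability is defined as nuclei in treated wells over nuclei in vehicle wells. Duplicate plates were run and medians reported. Lung cancer cell lines in 1536-well plates were dosed by pin tool one day after seeding, with one drug or with a fixed anchor-drug dose plus five library-drug doses (not always all listed) in √10 steps, and nuclei were counted after 5 days.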

[2] = compound: CCOC1=CC=CC=C1N=NC2=C(NN(C2=O)C3=NC(=CS3)C4=CC=CC=C4)C [BAM7] + COc1cc2c(Oc3ccc(NC(=O)C4(C(=O)Nc5ccc(F)cc5)CC4)cc3F)ccnc2cc1OCCCN1CCOCC1 [Foretinib] (partner 0.25 µM)
Method in brief: as §1

[3] = compound: CCn1c(-c2nonc2N)nc2c(C#CC(C)(C)O)ncc(OC[C@H]3CCCNC3)c21 + CS(=O)(=O)CCNCc1ccc(-c2ccc3ncnc(Nc4ccc(OCc5cccc(F)c5)c(Cl)c4)c3c2)o1 [Lapatinib] (partner 2 µM)
Method in brief: as §1

[4] = compound: CCn1c(-c2nonc2N)nc2c(C#CC(C)(C)O)ncc(OC[C@H]3CCCNC3)c21 + COc1cccc2cc(-c3nc([C@H]4CC[C@H](C(=O)O)CC4)n4ncnc(N)c34)[nH]c12 [OSI-027] (partner 0.5 µM)
Method in brief: as §1

Cell Line | relative viability ([1]; first compound 0.01 µM) | relative viability ([1]; first compound 0.03162 µM) | relative viability ([1]; first compound 0.1 µM) | relative viability ([1]; first compound 0.3162 µM) | relative viability ([1]; first compound 1 µM) | relative viability ([2]; first compound 0.5 µM) | relative viability ([2]; first compound 5 µM) | relative viability ([2]; first compound 15.81 µM) | relative viability ([2]; first compound 50 µM) | relative viability ([3]; first compound 0.01 µM) | relative viability ([3]; first compound 0.03162 µM) | relative viability ([3]; first compound 0.1 µM) | relative viability ([3]; first compound 0.3162 µM) | relative viability ([3]; first compound 1 µM) | relative viability ([4]; first compound 0.01 µM) | relative viability ([4]; first compound 0.03162 µM) | relative viability ([4]; first compound 0.1 µM) | relative viability ([4]; first compound 0.3162 µM) | relative viability ([4]; first compound 1 µM)
HCC-366 | 0.183 | 0.179 | 0.195 | 0.172 | 0.182 | 0.92 | 0.849 | 0.94 | 0.836 | 0.967 | 1.02 | 0.953 | 1.03 | 1.09 | 0.963 | 0.834 | 0.45 | 1 | 0.838
HCC-827 | 0.287 | 0.315 | 0.241 | 0.249 | 0.267 | 0.967 | 1.05 | 1.03 | 0.998 | 0.175 | 0.219 | 0.191 | 0.173 | 0.217 | 0.74 | 0.769 | 0.698 | 0.639 | 0.667
HOP-62 | 0.289 | 0.407 | 0.289 | 0.288 | 0.286 | 1.25 | 1.2 | 1.05 | 1.09 | 1.11 | 1.05 | 1 | 0.993 | 0.87 | 0.834 | 0.748 | 0.695 | 0.769 | 0.78
IA-LM | – | – | – | – | – | 1.36 | 1.2 | 1.03 | 1.21 | 0.713 | 0.922 | 0.887 | 0.532 | 0.289 | – | – | – | – | –
LC-2-ad | 0.267 | 0.283 | 0.261 | 0.262 | 0.272 | 0.908 | 0.911 | 0.829 | 0.908 | 0.993 | 1.01 | 0.906 | 0.975 | 0.977 | 0.71 | 0.804 | 0.871 | 0.681 | 0.857
LCLC-97TM1 | 0.169 | 0.179 | 0.141 | 0.147 | 0.175 | 0.975 | 0.963 | 0.935 | 0.883 | – | 0.854 | 1.06 | 0.663 | 1.27 | 0.49 | 0.502 | 0.484 | 0.515 | 0.439
LCLC-103H | 0.449 | 0.498 | 0.476 | 0.456 | 0.439 | 0.693 | 0.741 | 0.739 | 0.777 | – | – | – | – | – | 0.463 | 0.477 | 0.481 | 0.425 | 0.356
LK-2 | 0.277 | 0.333 | 0.269 | 0.204 | 0.234 | 1.15 | 1.23 | 1.18 | 1.29 | 0.998 | 1.01 | 0.668 | 0.697 | 0.926 | 0.199 | 0.212 | 0.179 | 0.218 | 0.173
LOU-NH91 | 0.403 | 0.366 | 0.419 | 0.4 | 0.399 | 0.913 | 1.03 | 0.904 | 0.936 | 0.802 | 0.681 | 0.717 | 0.652 | 0.618 | 0.718 | 0.694 | 0.706 | 0.625 | 0.594
LU99A | 0.182 | 0.201 | 0.154 | 0.141 | 0.193 | 0.787 | 0.888 | 0.828 | 0.843 | 0.874 | 1.07 | 0.869 | 0.865 | 0.818 | 0.284 | 0.298 | 0.283 | 0.267 | 0.282
LXF-289 | 0.922 | 0.95 | 0.925 | 0.84 | 0.938 | 1.04 | 0.968 | 0.986 | 0.961 | 0.921 | 0.891 | 0.934 | 0.871 | 0.88 | 0.778 | 0.779 | 0.808 | 0.759 | 0.804
NCI-H441 | 0.295 | 0.251 | 0.228 | 0.234 | 0.272 | 1.09 | 1.13 | 0.767 | 1.14 | – | – | – | – | – | 0.675 | 0.67 | 0.466 | 0.469 | 0.437
NCI-H522 | 0.989 | 1.02 | 0.915 | 0.95 | 1.17 | – | – | – | – | – | – | – | – | – | 0.673 | 0.691 | 0.741 | 0.634 | 0.748
NCI-H727 | – | – | – | – | – | 0.851 | 1.19 | 0.864 | 0.801 | 0.796 | 0.856 | 0.593 | 0.762 | 0.66 | 0.617 | 0.58 | 0.535 | 0.551 | 0.528
NCI-H1299 | – | – | – | – | – | 1.07 | 1.18 | 1.08 | 1.11 | 0.927 | 0.967 | 0.998 | 0.947 | 0.982 | – | – | – | – | –
NCI-H1623 | – | – | – | – | – | 0.905 | 0.831 | 0.689 | 0.786 | – | – | – | – | – | 0.391 | 0.423 | 0.485 | 0.438 | 0.395
NCI-H1648 | 0.62 | 0.756 | 0.759 | 0.664 | 0.723 | – | – | – | – | – | – | – | – | – | – | 0.271 | 0.278 | 0.265 | 0.246
NCI-H1703 | – | – | – | – | – | 0.329 | 0.42 | 0.393 | 0.326 | 0.998 | 1.23 | 1.05 | 0.739 | 0.662 | – | – | – | – | –
NCI-H1792 | 0.759 | 0.684 | 0.632 | 0.782 | 0.687 | – | – | – | – | 0.897 | 0.859 | 0.862 | 0.757 | 0.871 | 0.739 | – | 0.696 | 0.715 | 0.842
NCI-H2342 | 0.751 | 0.73 | 0.767 | 0.754 | 0.8 | 1.01 | 1.04 | 0.921 | 1.03 | – | – | – | – | – | 0.598 | 0.617 | 0.517 | 0.546 | 0.594
SW 900 | 0.488 | 0.502 | 0.465 | 0.385 | 0.499 | 0.933 | 0.755 | 0.774 | 0.863 | – | – | – | – | – | 0.452 | 0.321 | 0.507 | 0.435 | 0.562
